Activity calls are given as the source filed them. The rule behind the calls is not given here.
What was measured:
[1] = target: T1, Sodium bicarbonate cotransporter 3 (Homo sapiens) (UniProt Q9Y6M7); assay: Inhibition of NBCn1 in human MCF7 cells assessed as decrease in Na(+) -dependent pHi recovery rate at 30 uM; type: cell-based
T1 sequence (whole entry): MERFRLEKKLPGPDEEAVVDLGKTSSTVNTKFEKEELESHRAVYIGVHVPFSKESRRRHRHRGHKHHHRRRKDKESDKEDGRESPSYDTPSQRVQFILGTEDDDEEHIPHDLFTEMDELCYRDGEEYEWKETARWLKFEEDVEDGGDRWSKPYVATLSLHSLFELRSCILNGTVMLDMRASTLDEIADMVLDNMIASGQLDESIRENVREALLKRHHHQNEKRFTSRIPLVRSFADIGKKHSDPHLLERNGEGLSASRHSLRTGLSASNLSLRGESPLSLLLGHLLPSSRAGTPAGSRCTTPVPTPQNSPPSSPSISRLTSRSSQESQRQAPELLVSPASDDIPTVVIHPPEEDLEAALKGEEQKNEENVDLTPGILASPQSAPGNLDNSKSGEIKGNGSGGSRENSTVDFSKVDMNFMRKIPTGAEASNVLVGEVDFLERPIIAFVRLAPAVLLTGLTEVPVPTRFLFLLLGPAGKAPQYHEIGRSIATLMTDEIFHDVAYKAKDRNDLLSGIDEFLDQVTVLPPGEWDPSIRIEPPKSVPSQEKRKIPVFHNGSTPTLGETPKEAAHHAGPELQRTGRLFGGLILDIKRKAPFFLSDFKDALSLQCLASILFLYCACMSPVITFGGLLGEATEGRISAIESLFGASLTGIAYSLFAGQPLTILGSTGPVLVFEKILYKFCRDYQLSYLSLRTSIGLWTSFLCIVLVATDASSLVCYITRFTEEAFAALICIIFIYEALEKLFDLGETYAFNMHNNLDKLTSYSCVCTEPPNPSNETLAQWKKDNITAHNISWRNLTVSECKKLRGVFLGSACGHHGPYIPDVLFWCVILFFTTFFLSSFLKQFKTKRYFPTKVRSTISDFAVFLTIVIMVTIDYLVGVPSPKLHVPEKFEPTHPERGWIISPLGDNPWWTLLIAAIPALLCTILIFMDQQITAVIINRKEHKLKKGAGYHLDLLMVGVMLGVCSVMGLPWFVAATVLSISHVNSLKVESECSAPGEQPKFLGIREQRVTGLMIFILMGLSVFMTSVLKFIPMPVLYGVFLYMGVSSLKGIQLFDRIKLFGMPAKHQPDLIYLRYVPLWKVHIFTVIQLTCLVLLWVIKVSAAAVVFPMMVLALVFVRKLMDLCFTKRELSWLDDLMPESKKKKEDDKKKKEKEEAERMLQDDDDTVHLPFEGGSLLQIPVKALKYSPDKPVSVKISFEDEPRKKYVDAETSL

[2] = target: T2, Sodium bicarbonate cotransporter 3 (Mus musculus) (UniProt Q8BTY2); assay: Inhibition of NBCn1 in epithelial organoids from mouse ErbB2-overexpressing breast cancer tissue assessed as Na(+) -dependent pHi recovery rate at 30 uM
T2 sequence (whole entry): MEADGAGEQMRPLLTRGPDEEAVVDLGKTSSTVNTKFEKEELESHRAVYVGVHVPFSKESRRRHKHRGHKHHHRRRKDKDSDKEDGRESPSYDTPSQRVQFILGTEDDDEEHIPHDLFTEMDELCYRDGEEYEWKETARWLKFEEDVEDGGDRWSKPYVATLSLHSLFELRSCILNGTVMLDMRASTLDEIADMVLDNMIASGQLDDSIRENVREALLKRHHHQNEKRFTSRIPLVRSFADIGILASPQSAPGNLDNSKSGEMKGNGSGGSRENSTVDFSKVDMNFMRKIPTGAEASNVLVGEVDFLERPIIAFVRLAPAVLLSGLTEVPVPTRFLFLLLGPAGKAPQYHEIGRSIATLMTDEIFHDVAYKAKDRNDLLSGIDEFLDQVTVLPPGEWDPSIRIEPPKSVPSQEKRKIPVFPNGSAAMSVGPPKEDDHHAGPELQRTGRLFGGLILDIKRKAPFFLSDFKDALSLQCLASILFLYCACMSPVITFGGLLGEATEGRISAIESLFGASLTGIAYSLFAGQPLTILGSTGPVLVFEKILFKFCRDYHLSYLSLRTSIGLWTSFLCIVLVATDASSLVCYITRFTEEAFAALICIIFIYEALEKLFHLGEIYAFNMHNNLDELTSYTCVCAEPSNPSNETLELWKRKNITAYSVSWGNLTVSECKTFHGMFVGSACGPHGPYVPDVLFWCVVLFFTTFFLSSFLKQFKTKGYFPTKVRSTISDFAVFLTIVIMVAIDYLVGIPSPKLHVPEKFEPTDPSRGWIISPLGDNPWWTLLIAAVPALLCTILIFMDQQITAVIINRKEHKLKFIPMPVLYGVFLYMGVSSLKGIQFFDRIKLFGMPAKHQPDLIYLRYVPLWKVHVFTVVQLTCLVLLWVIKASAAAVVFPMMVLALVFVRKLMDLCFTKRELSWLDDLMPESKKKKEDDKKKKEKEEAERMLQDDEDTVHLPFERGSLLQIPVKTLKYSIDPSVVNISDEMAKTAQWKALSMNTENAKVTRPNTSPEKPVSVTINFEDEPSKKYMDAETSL

inhibition [1] | inhibition [2] | Structure (SMILES)
inactive | inactive | Cc1ccc(CN(Cc2ccc(-c3ccccc3/S(C)=N/C#N)cc2)C(=O)c2ccccc2Cl)cc1 (stereo unspecified)
45% | inactive | Cc1ccc(CN(Cc2ccc(-c3ccccc3S(=O)(=O)NC#N)cc2)C(=O)c2ccccc2Cl)cc1
inactive | inactive | Cc1ccc(CN(Cc2ccc(-c3ccccc3S(C)(=O)=NC#N)cc2)C(=O)c2ccccc2Cl)cc1 (stereo unspecified)
